Each structure is given as a SMILES string. Where a name gives a salt, the structure may show the parent alone.

Usually EC50 stands for the concentration at which the effect is half-maximal. A lower EC50 goes with an effect from little substance.

In this assay the target is T1, human GPR120 (Homo sapiens, UniProt Q5NUL3).
T1 construct: expressed in transfected cells; host or cells: CHOA12 cells
T1 sequence (Q5NUL3 1-361): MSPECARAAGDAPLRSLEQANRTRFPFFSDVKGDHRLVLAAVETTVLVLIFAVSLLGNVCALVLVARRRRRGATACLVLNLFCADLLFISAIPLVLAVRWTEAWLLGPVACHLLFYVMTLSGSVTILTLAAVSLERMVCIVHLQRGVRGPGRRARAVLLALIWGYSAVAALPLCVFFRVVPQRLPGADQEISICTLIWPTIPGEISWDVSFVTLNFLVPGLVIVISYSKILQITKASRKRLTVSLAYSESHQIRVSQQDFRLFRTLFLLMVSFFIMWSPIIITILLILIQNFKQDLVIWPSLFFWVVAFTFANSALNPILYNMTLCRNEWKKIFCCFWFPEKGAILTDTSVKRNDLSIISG
The experiment in a line: GPR120 pERK AlphaScreen SureFire assay (human). Type of assay: cell-based. Conditions: CHO cells stably transfected with short form of human GPR120. The text has this: GPR120 activity was monitored by measuring phosphorylation of ERK (pERK), since G protein receptors are known to activate the ERK signaling cascade either directly and/or through recruitment of arrestin that serves as a scaffold for downstream signaling events.
GPR120 pERK AlphaScreen SureFire Assay
The human and mouse GPR120-mediated intracellular phosphorylated ERK assays were established using CHOA12 cells stably transfected with the short form of human or mouse GPR120 receptor. Cells were cultured in growth medium consisting of F-12 media (Invitrogen Cat. #11765) with 5% Charcoal/Dextran FBS (Invitrogen Cat. #12676-029), 500 μg/mL GENETICIN® (Life Technologies Cat. #10131-027) and 250 μg/mL Zeocin (Invitrogen Cat. #R250-01). Cells were cryo preserved at a concentration of 2×10^7 cells/mL, in 90% Charcoal/Dextran FBS and 10% DMSO, and frozen in liquid nitrogen at a low passage number.
For the pERK assay, 2×10^7 cells/mL cryopreserved human and mouse cells were thawed rapidly in a 37° C. water bath and added to a T-225 flask containing 50 mL growth medium. The flasks were placed in a tissue culture incubator overnight (37° C., 5% CO2). The next day, cells were harvested with trypsin (Gibco Cat. #25300-054), resuspended in serum-containing growth medium and counted using a Cellometer and volume adjusted to a concentration of 0.6×10^6cells/mL. Cells were plated into 384-well clear bottom tissue culture plates (BD Cat. #353962) at 50 μL/well, for a density of 30,000 cells/well using a MULTIDROP® and incubated for 16-18 hours (overnight) at 37° C. with 5% CO2. The next day, cells were serum starved in 30 μL of F-12 media without any serum or antibiotics for 2 hours at 37° C.
Test compounds were 3-fold, 11-point serially diluted in DMSO in a REMP assay plate (Matrix Cat. #4307) by Tecan and 5 μL was transferred into an ECHO source plate (LABCYTE® Cat. #LC-0200). Cells were then stimulated with 50 nL of compound dilutions using ECHO liquid handler for 7 minutes at 37° C. Compounds ranged from final assay concentrations of 33.33 μM to 0.56 nM.
The media was then dumped and cells lysed with 20 μL of 1× Lysis buffer from the AlphaScreen SureFire Phospho-ERK 1/2 Kit (Perkin Elmer Cat. #6760617M). The lysis buffer was diluted 5-fold with water before use. The plate was agitated on a shaker for 10 minutes after which 2 μL was transferred into a 384-well white proxiplate (Perkin Elmer Cat. #6008289). The SureFire assay reagent mix was prepared by mixing 60 parts Reaction Buffer, 10 parts Activation Buffer, 1 part Donor Beads, 1 part Acceptor Beads (Perkin Elmer Cat. #TGRES10K). 3.5 μL/well of this reagent mix was manually added to the proxiplate with a multichannel pipettor. Plates were spun down at 1000 rpm for 2 minutes, followed by light-protected incubation at room temperature for 2 hours. The plates were read on the Alpha-technology compatible Envision multilabel plate reader using AlphaScreen protocol according to manufacturer's specifications. The agonist effect of compounds was expressed as 100×(average sample−average blank)/(average total−average blank) where sample is the luminescence activity in the presence of test compound, blank is equal to the luminescence activity in the presence of DMSO control and the total is signal induced by 50 μM linolenic acid as reference compound. Activation data for the test compound over a range of concentrations was plotted as percentage activation of the test compound (100%=maximum response). After correcting for background, EC50 values were determined The EC50 is defined as the concentration of test compound which produces 50% of the maximal response and was quantified using the 4 parameter logistic equation to fit the data.
The human and mouse GPR120-mediated intracellular phosphorylated ERK assays were also established using CHO-K1 cells stably transfected with the short form of human or mouse GPR120 receptor. […]
On the technique in general: Bead proximity is the source of the signal in Alpha formats.
Consider `O=C(O)COCCC12CCC(c3cccc(OC4CCCCC4)c3)(CC1)OC2` [Example 8, 2-(2-(1-(3-(Cyclohexyloxy)phenyl)-2-oxabicyclo[2.2.2]octan-4-yl)ethoxy)acetic acid], for which the EC50 came to 1050 nM.

For `CC(C)COc1cccc(C23CCC(CCOCC(=O)O)(CC2)CO3)c1` [Example 9, 2-(2-(1-(3-Isobutoxyphenyl)-2-oxabicyclo[2.2.2]octan-4-yl)ethoxy)acetic acid], the midpoint of the response, the EC50, lay at 1280 nM.

`O=C(O)CCCCC12CCC(c3cccc(OC4CCCCO4)c3)(CC1)OC2` (stereo not drawn) [Example 10, 5-(1-(3-(Tetrahydro-2H-pyran-2-yloxy)phenyl)-2-oxabicyclo[2.2.2]octan-4-yl)pentanoic acid]: the midpoint of the response, the EC50, lay at 640 nM.

`O=C(O)/C=C/CCC12CCC(c3cccc(Oc4ccccc4)c3)(CC1)OC2` [Example 11, (E)-5-(1-(3-Phenoxyphenyl)-2-oxabicyclo[2.2.2]octan-4-yl)pent-2-enoic acid] came in with an EC50 of 100 nM.

Regarding `O=C(O)COCCCC12CCC(c3cccc(Oc4ccccc4)c3)(CC1)OC2` [Example 12, 2-(3-(1-(3-Phenoxyphenyl)-2-oxabicyclo[2.2.2]octan-4-yl)propoxy)acetic acid], the EC50 came to 980 nM.

With `O=C(O)CC1CC1CC12CCC(c3cccc(Oc4ccccc4)c3)(CC1)OC2` (stereo not drawn) [Example 16, 2-(2-((1-(3-Phenoxyphenyl)-2-oxabicyclo[2.2.2]octan-4-yl)methyl)cyclopropyl)acetic acid (trans)], the EC50 turned out to be 160 nM.

For the compound `C=C(C)COc1cccc(C23CCC(CCOCC(=O)O)(CC2)CO3)c1` [Example 19, 2-(2-(1-(3-(2-Methylallyloxy)phenyl)-2-oxabicyclo[2.2.2]octan-4-yl)ethoxy)acetic acid], the concentration for a half-maximal effect (EC50) was determined as 1980 nM.

In the case of `CC(C)=COc1cccc(C23CCC(CCOCC(=O)O)(CC2)CO3)c1` [Example 20, 2-(2-(1-(3-(2-Methylprop-1-enyloxy)phenyl)-2-oxabicyclo[2.2.2]octan-4-yl)ethoxy)acetic acid], the response was half-maximal at 650 nM (EC50).

As to `O=C(O)COCCC12CCC(c3cccc(Oc4cccnc4)c3)(CC1)OC2` [Example 21, 2-(2-(1-(3-(Pyridin-3-yloxy)phenyl)-2-oxabicyclo[2.2.2]octan-4-yl)ethoxy)acetic acid, TFA salt], the EC50 came to 6860 nM.

Regarding `COc1cccc(Oc2cccc(C34CCC(CCOCC(=O)O)(CC3)CO4)c2)c1` [Example 22, 2-(2-(1-(3-(3-Methoxyphenoxy)phenyl)-2-oxabicyclo[2.2.2]octan-4-yl)ethoxy)acetic acid], a half-maximal effect (EC50) was put at 380 nM.

As to `O=C(O)COCCC12CCC(c3cc(F)cc(Oc4ccccc4)c3)(CC1)OC2` [Example 23, 2-(2-(1-(3-Fluoro-5-phenoxyphenyl)-2-oxabicyclo[2.2.2]octan-4-yl)ethoxy)acetic acid], the concentration for a half-maximal effect (EC50) was 310 nM.

`O=C(O)COCCC12CCC(c3cccc(C4=CCCC4)c3)(CC1)OC2` [Example 24, 2-(2-(1-(3-Cyclopentenylphenyl)-2-oxabicyclo[2.2.2]octan-4-yl)ethoxy)acetic acid]: the concentration giving a half-maximal response (EC50) was 800 nM.

`O=C(CCCCC12CCC(c3cccc(Oc4ccccc4)c3)(CC1)OC2)NS(=O)(=O)c1ccccc1` [Example 25, 5-(1-(3-Phenoxyphenyl)-2-oxabicyclo[2.2.2]octan-4-yl)-N-(phenylsulfonyl)pentanamide] showed an EC50 of 590 nM.

`CS(=O)(=O)NC(=O)CCCCC12CCC(c3cccc(Oc4ccccc4)c3)(CC1)OC2` [Example 26, N-(Methylsulfonyl)-5-(1-(3-phenoxyphenyl)-2-oxabicyclo[2.2.2]octan-4-yl)pentanamide] returned an EC50 of 170 nM.

Take `O=C(O)CNC(=O)CC12CCC(c3cccc(Oc4ccccc4)c3)(CC1)OC2` [Example 27, 2-(2-(1-(3-Phenoxyphenyl)-2-oxabicyclo[2.2.2]octan-4-yl)acetamido)acetic acid]: the response was half-maximal at 5020 nM (EC50).

Compound `O=C(O)COC(=O)NCC12CCC(c3cccc(Oc4ccccc4)c3)(CC1)OC2` [Example 28, 2-((1-(3-Phenoxyphenyl)-2-oxabicyclo[2.2.2]octan-4-yl)methylcarbamoyloxy)acetic acid] came in with a half-maximal effective concentration (EC50) of 1980 nM.

In the case of `O=C(O)CCS(=O)(=O)CC12CCC(c3cccc(Oc4ccccc4)c3)(CC1)OC2` [Example 29, 3-((1-(3-Phenoxyphenyl)-2-oxabicyclo[2.2.2]octan-4-yl)methylsulfonyl)propanoic acid], it took 1570 nM to reach a half-maximal effect (EC50).

Take `O=C(O)CCOCC12CCC(c3cccc(Oc4ccccc4)c3)(CC1)CO2` [Example 30, 3-((4-(3-Phenoxyphenyl)-2-oxabicyclo[2.2.2]octan-1-yl)methoxy)propanoic acid]: the EC50 stood at 140 nM.

Take `O=C(O)COCCC12CCC(c3cccc(Oc4ccccc4)c3)(CC1)CO2` [Example 31, 2-(2-(4-(3-Phenoxyphenyl)-2-oxabicyclo[2.2.2]octan-1-yl)ethoxy)acetic acid]: the 50% effective concentration (EC50) was 280 nM.

Compound `COC(CCC12CCC(c3cccc(Oc4ccccc4)c3)(CC1)OC2)CC(=O)O` (stereo not drawn) [Example 33, 3-Methoxy-5-(1-(3-phenoxyphenyl)-2-oxabicyclo[2.2.2]octan-4-yl)pentanoic acid] displayed an EC50 of 1900 nM.

Regarding `O=C(O)C/C=C/CC12CCC(c3cccc(Oc4ccccc4)c3)(CC1)OC2` [Example 34, (E)-5-(1-(3-Phenoxyphenyl)-2-oxabicyclo[2.2.2]octan-4-yl)pent-3-enoic acid], it took 70 nM to reach a half-maximal effect (EC50).

The compound `O=C(O)/C=C\CCC12CCC(c3cccc(Oc4ccccc4)c3)(CC1)OC2` [Example 35, (Z)-5-(1-(3-Phenoxyphenyl)-2-oxabicyclo[2.2.2]octan-4-yl)pent-2-enoic acid] had an EC50 of 660 nM.

`CC(C)COc1cc(F)cc(C23CCC(CCOCC(=O)O)(CC2)CO3)c1` [Example 36, 2-(2-(1-(3-Fluoro-5-isobutoxyphenyl)-2-oxabicyclo[2.2.2]octan-4-yl)ethoxy)acetic acid]: a half-maximal response (EC50) required 720 nM.

`O=C(O)COCCC12CCC(c3ccccc3Oc3ccccc3)(CC1)OC2` [Example 37, 2-(2-(1-(2-Phenoxyphenyl)-2-oxabicyclo[2.2.2]octan-4-yl)ethoxy)acetic acid] showed an EC50 of 1140 nM.

On to `O=C(O)COCCC12CCC(c3cccc(Oc4ccc(F)cc4)c3)(CC1)OC2` [Example 39, 2-(2-(1-(3-(4-fluorophenoxy)phenyl)-2-oxabicyclo[2.2.2]octan-4-yl)ethoxy) acetic acid], for which the EC50 is 200 nM.

`O=C(O)COCCC12CCC(c3cccc(Oc4ccc(Cl)cc4)c3)(CC1)OC2` [Example 40, 2-(2-(1-(3-(4-chlorophenoxy)phenyl)-2-oxabicyclo[2.2.2]octan-4-yl)ethoxy) acetic acid] returned an EC50 of 300 nM.

For `Cc1ccc(Oc2cccc(C34CCC(CCOCC(=O)O)(CC3)CO4)c2)cc1` [Example 41, 2-(2-(1-(3-(p-tolyloxy)phenyl)-2-oxabicyclo [2.2.2]octan-4-yl)ethoxy)acetic acid], the EC50 amounted to 200 nM.

Source of the values: patent US8962660B2 (Bristol-Myers Squibb Company, priority 2013, dated 2015).
